Test results: PubChem BioAssay (NCI)
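Briefly, cells in 96-well plates were exposed to five compound concentrations for 48 h, and endpoints were estimated by linear interpolation. GI50 = concentration required for 50% inhibition of growth. Definition used: TGI = concentration required for complete inhibition of growth.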

Legend:
Assay in all cases: DTP human tumour cell line panel, 48 h
[1] = tested on: NCI-H23 lung
[2] = tested on: KM12 colon
[3] = tested on: M14 melanoma
[4] = tested on: SF-295 CNS
[5] = tested on: HCT-116 colon
[6] = tested on: ACHN renal
[7] = tested on: MOLT-4 leukemia
[8] = tested on: COLO 205 colon
[9] = tested on: MCF7 breast
[10] = tested on: EKVX NSCLC
[11] = tested on: HCT-15 colon
[12] = tested on: IGROV1 ovarian
[13] = tested on: MDA-MB-231 breast
[14] = tested on: RXF 393 renal
[15] = tested on: NCI-H226 lung
[16] = tested on: LOX IMVI melanoma
[17] = tested on: HS 578T breast
[18] = tested on: SK-MEL-2 melanoma
[19] = tested on: SK-MEL-28 melanoma
[20] = tested on: SN12C renal
[21] = tested on: RPMI-8226 leukemia
[22] = tested on: MDA-MB-435
[23] = tested on: SK-MEL-5 melanoma
[24] = tested on: DU-145 prostate
[25] = tested on: BT-549 breast
[26] = tested on: NCI-H460 lung
[27] = tested on: OVCAR-3 ovarian
[28] = tested on: NCI/ADR-RES ovarian
[29] = tested on: A549 NSCLC
[30] = tested on: U251 CNS
[31] = tested on: CCRF-CEM leukemia
[32] = tested on: OVCAR-5 ovarian
[33] = tested on: HT29 colon
[34] = tested on: UACC-62 melanoma
[35] = tested on: SNB-19 CNS
[36] = tested on: HL-60(TB) leukemia
[37] = tested on: HCC-2998 colon
[38] = tested on: 786-0 renal
[39] = tested on: K-562 leukemia
[40] = tested on: SF-539 CNS
[41] = tested on: NCI-H522 lung
[42] = tested on: TK-10 renal
[43] = tested on: UACC-257 melanoma
[44] = tested on: PC-3 prostate
[45] = tested on: OVCAR-4 ovarian
[46] = tested on: SF-268 CNS
[47] = tested on: OVCAR-8 ovarian
[48] = tested on: HOP-92 NSCLC
[49] = tested on: T-47D breast
[50] = tested on: UO-31 renal
[51] = tested on: SNB-75 CNS
[52] = tested on: SR leukemia
[53] = tested on: CAKI-1 renal
[54] = tested on: A498 renal
[55] = tested on: SW-620 colon
[56] = tested on: SK-OV-3 ovarian
[57] = tested on: HOP-62 NSCLC

`CC(C)(C)c1ccc(C(=O)Nc2sc3c(c2C#N)CCC(=O)C3)cc1` gave a GI50 [1] of 443 nM, a TGI [1] greater than 100000 nM and a GI50 [2] of 418 nM. The TGI [2] was greater than 100000 nM, the GI50 [3] was 412 nM and the TGI [3] was greater than 83600 nM. The GI50 [4] was 658 nM, the TGI [4] was greater than 26200 nM and the GI50 [5] was 122 nM. The GI50 [6] was 237 nM, the TGI [6] was 641 nM and the GI50 [7] was 324 nM. The TGI [7] was greater than 100000 nM, the GI50 [8] was 328 nM and the TGI [8] was 944 nM. It also gave a GI50 [9] of 320 nM, a GI50 [10] of 1130 nM and a TGI [10] greater than 100000 nM. The GI50 [11] was 281 nM, the TGI [11] was 3400 nM and the GI50 [12] was 657 nM. The TGI [12] was greater than 20400 nM, the GI50 [13] was 746 nM and the TGI [13] was 3000 nM. For the same molecule, the GI50 [14] was 237 nM, the TGI [14] was 796 nM and the GI50 [15] was 991 nM. For the same molecule, the TGI [15] was 5740 nM, the GI50 [16] was 262 nM and the GI50 [17] was 339 nM. The TGI [17] was greater than 20500 nM, the GI50 [18] was 960 nM and the TGI [18] was 2910 nM. For the same molecule, the GI50 [19] was 704 nM, the TGI [19] was 5670 nM and the GI50 [20] was 611 nM. It also gave a TGI [20] greater than 53500 nM, a GI50 [21] of 90.2 nM and a TGI [21] of 495 nM. It also gave a GI50 [22] of 873 nM, a TGI [22] of 4820 nM and a GI50 [23] of 706 nM. The TGI [23] was 1700 nM, the GI50 [24] was 5930 nM and the TGI [24] was greater than 100000 nM. It also gave a GI50 [25] of 338 nM, a TGI [25] of 16800 nM and a GI50 [26] of 890 nM. For the same molecule, the TGI [26] was greater than 26000 nM, the GI50 [27] was 473 nM and the TGI [27] was 1630 nM. For the same molecule, the GI50 [28] was 718 nM, the TGI [28] was 5750 nM and the GI50 [29] was 980 nM. The TGI [29] was greater than 100000 nM, the GI50 [30] was 218 nM and the TGI [30] was greater than 100000 nM. The GI50 [31] was 69.7 nM, the TGI [31] was greater than 100000 nM and the GI50 [32] was 531 nM. It also gave a TGI [32] of 5780 nM, a GI50 [33] of 505 nM and a TGI [33] of 3830 nM. It also gave a GI50 [34] of 347 nM, a TGI [34] of 2240 nM and a GI50 [35] of 406 nM. The TGI [35] was greater than 100000 nM, the GI50 [36] was 505 nM and the TGI [36] was 1950 nM. For the same molecule, the GI50 [37] was 1250 nM, the TGI [37] was greater than 100000 nM and the GI50 [38] was 769 nM. It also gave a GI50 [39] of 87.4 nM, a TGI [39] greater than 71400 nM and a GI50 [40] of 209 nM. The TGI [40] was 936 nM, the GI50 [41] was 233 nM and the TGI [41] was 1360 nM. The GI50 [42] was 531 nM, the TGI [42] was 5080 nM and the GI50 [43] was 690 nM. For the same molecule, the TGI [43] was 3470 nM, the GI50 [44] was 139 nM and the GI50 [45] was 223 nM. For the same molecule, the TGI [45] was 687 nM, the GI50 [46] was 625 nM and the TGI [46] was greater than 100000 nM. It also gave a GI50 [47] of 643 nM, a TGI [47] greater than 100000 nM and a GI50 [48] of 1210 nM. The TGI [48] was 4760 nM, the GI50 [49] was 211 nM and the TGI [49] was 905 nM. For the same molecule, the GI50 [50] was 224 nM, the TGI [50] was 678 nM and the GI50 [51] was 612 nM. It also gave a TGI [51] of 2600 nM, a GI50 [52] of 149 nM and a TGI [52] greater than 38100 nM. It also gave a GI50 [53] of 235 nM, a TGI [53] of 793 nM and a GI50 [54] of 1660 nM. For the same molecule, the TGI [54] was 5580 nM, the GI50 [55] was 105 nM and the TGI [55] was 566 nM. For the same molecule, the GI50 [56] was 2180 nM, the TGI [56] was 9940 nM and the GI50 [57] was 1240 nM. For the same molecule, the TGI [57] was greater than 100000 nM.
